{"source": "paper PMC5053523", "about": "“In Vitro Antibacterial Activity of Rhodanine Derivatives against Pathogenic Clinical Isolates” (PLoS ONE, 2016)", "key": {"[1]": {"test_system": "B. cereus", "assay": "Broth microdilution MIC/MBC, B. cereus", "assay_type": "cell-based", "text": "The broth microdilution technique was used, followed by subculturing on agar plates that were rhodanine—free."}, "[2]": {"test_system": "MRSA USA300", "assay": "MIC against MRSA USA300 with and without 4% human serum albumin", "assay_type": "cell-based, Staphylococcus aureus", "conditions": "Staphylococcus aureus, read-out: MIC against MRSA USA300", "experimental": "The minimum inhibitory concentration (MIC) and the minimum bactericidal concentration (MBC) of rhodanine compounds 1 to 7 were determined against various Gram-positive and Gram-negative pathogens (S1 Table) following the guidelines of the Clinical and Laboratory Standards Institute (CLSI)[4]. The broth microdilution technique was used, followed by subculturing on agar plates that were rhodanine—free. […] The MICs reported represent the lowest concentration of each compound necessary to inhibit bacterial growth and the MBCs represent the lowest concentration required to reduce the initial bacterial inoculum by ≥ 99.9%.\nThe antimicrobial activity of rhodanine compounds in the presence of 4% human serum albumin (HSA) was tested against MRSA USA300. The MICs of rhodanine compounds and control antibiotics (vancomycin and daptomycin) were tested as described in the methods above using tryptic soy broth spiked with 4% HSA. We also synthesized and tested three more compounds, ethyl ester and amide of rhodanine 2 (Rh 8 and Rh 10, respectively) and ethyl ester of rhodanine 3 (Rh 9) to determine the influence of a carboxyl group modification toward anti-MRSA activity and human serum albumin (HSA) binding."}, "[3]": {"test_system": "vancomycin resistant enterococci (VRE) E. faecium", "assay": "Broth microdilution MIC/MBC, VRE E. faecium", "assay_type": "cell-based"}, "[4]": {"test_system": "vancomycin resistant enterococci (VRE)", "assay": "Broth microdilution MIC50/MIC90, VRE panel", "assay_type": "cell-based", "conditions": "Enterococcus, VRE"}, "[5]": {"test_system": "B. licheniformis", "assay": "Broth microdilution MIC/MBC, B. licheniformis", "assay_type": "cell-based", "conditions": "Bacillus licheniformis"}, "[6]": {"test_system": "Vancomycin Resistant Staphylococcus aureus (VRSA)", "assay": "Broth microdilution MIC/MBC, VRSA", "assay_type": "cell-based", "conditions": "VRSA"}, "[7]": {"test_system": "Bacillus Strains", "assay": "Broth microdilution MIC50/MIC90 and MIC range, Bacillus strains panel", "assay_type": "cell-based, Bacillus spp.", "conditions": "10 Bacillus strains", "text": "The broth microdilution technique was used, followed by subculturing on agar plates that were rhodanine—free. […] The MICs reported represent the lowest concentration of each compound necessary to inhibit bacterial growth and the MBCs represent the lowest concentration required to reduce the initial bacterial inoculum by ≥ 99.9%."}, "[8]": {"test_system": "Clostridium difficile", "assay": "MIC against Clostridium difficile, anaerobic broth dilution", "assay_type": "cell-based", "conditions": "Clostridioides difficile", "experimental": "Clinical isolates of C. difficile were cultured on anaerobic blood agar and incubated anaerobically using container gas pack system at 37° C for 48 hours. The colonies were then suspended in pre-reduced phosphate buffered saline (PBS) and adjusted to 0.5 McFarland standard then diluted 1:300 in pre-reduced Supplemented Brain Heart Infusion broth. The bacterial suspension was then transferred to each well of 96-well plates, the drugs were added to the first row of wells in the required concentrations and serially diluted along the plates. The plates were incubated again anaerobically using container gas pack system at 37° C for 48 hours. The (MIC) recorded was the lowest concentration of the drug showing no visible growth of the bacteria."}, "[9]": {"test_system": "Mycobacterium smegmatis", "assay": "Broth microdilution MIC/MBC, Mycobacterium smegmatis", "assay_type": "cell-based", "conditions": "Mycolicibacterium smegmatis, ATCC14468"}, "[10]": {"test_system": "established methicillin-resistant S. epidermidis biofilm (ATCC 35984, NRS 101)", "assay": "Microtiter dish biofilm eradication assay (crystal violet)", "assay_type": "cell-based, Staphylococcus epidermidis", "conditions": "high concentrations (up to 8 X MIC), 24 h", "experimental": "We used S. epidermidis ATCC 35984 (NRS 101), a high-slime producer isolated in septicemic patients, with colonized intravascular catheters from Tennessee, USA [10]. This strain is a multi-drug resistant strain, showing resistance to methicillin, erythromycin, kanamycin, gentamicin, clindamycin and trimethoprim. Briefly, an overnight culture of biofilm—producing MRSE was diluted 1:100 in a fresh medium containing 1% glucose in a 96-well tissue-culture treated plate. Bacteria were incubated at 37°C for 24 h to permit the formation of an adherent biofilm. The medium was removed and the biofilm was washed with PBS. Antibacterial drugs (vancomycin and linezolid) and rhodanine 2, at indicated concentration, were added and incubated again at 37°C for 24 h. Plates were washed again and biofilms were stained with 0.1% (wt/vol) crystal violet. Plates were washed with PBS, air-dried and biofilm mass was dissolved using 95% ethanol. The intensity of crystal violet was measured using a micro plate reader (SpectraMax i3x; Molecular Devices, Sunnyvale, CA, USA). Data are presented as the percent biofilm mass reduction in treated groups in relation to untreated wells."}, "[11]": {"test_system": "vancomycin resistant enterococci (VRE) E. faecalis", "assay": "Broth microdilution MIC/MBC, VRE E. faecalis", "assay_type": "cell-based"}}, "note": "Counter-ions that a name gives are not always drawn. Like-named read-outs stand apart in the source and are kept apart here."}
{"smiles": "CN[C@H](CC(C)C)C(=O)N[C@H]1C(=O)N[C@@H](CC(N)=O)C(=O)N[C@H]2C(=O)N[C@H]3C(=O)N[C@H](C(=O)N[C@H](C(=O)O)c4cc(O)cc(O)c4-c4cc3ccc4O)[C@H](O)c3ccc(c(Cl)c3)Oc3cc2cc(c3O[C@@H]2O[C@H](CO)[C@@H](O)[C@H](O)[C@H]2O[C@H]2C[C@](C)(N)[C@H](O)[C@H](C)O2)Oc2ccc(cc2Cl)[C@H]1O", "note": "[Vancomycin, vancomycin hydrochloride, reference compound]", "values": [{"measurement": "MBC", "setting": "[1]; B. cereus BAG1O-2 NR-28582", "result": "< 0.5/< 0.5 μM"}, {"measurement": "MIC", "setting": "[1]; B. cereus BAG1O-2 NR-28582", "result": "< 0.5/< 0.5 μM"}, {"measurement": "MBC", "setting": "[1]; B. cereus BAG1X1-1 NR-28575", "result": "< 0.5/< 0.5 μM"}, {"measurement": "MIC", "setting": "[1]; B. cereus BAG1X1-1 NR-28575", "result": "< 0.5/< 0.5 μM"}, {"measurement": "MBC", "setting": "[1]; B. cereus G9241 NR-9564", "result": "< 0.5/< 0.5 μM"}, {"measurement": "MIC", "setting": "[1]; B. cereus G9241 NR-9564", "result": "< 0.5/< 0.5 μM"}, {"measurement": "MBC", "setting": "[1]; B. cereus VD014 NR-22141", "result": "< 0.5/< 0.5 μM"}, {"measurement": "MIC", "setting": "[1]; B. cereus VD014 NR-22141", "result": "< 0.5/< 0.5 μM"}, {"measurement": "MBC", "setting": "[1]; B. cereus VD115 NR-22148", "result": "< 0.5/< 0.5 μM"}, {"measurement": "MIC", "setting": "[1]; B. cereus VD115 NR-22148", "result": "< 0.5/< 0.5 μM"}, {"measurement": "MBC", "setting": "[1]; B. cereus VD148 NR-22150", "result": "< 0.5/< 0.5 μM"}, {"measurement": "MIC", "setting": "[1]; B. cereus VD148 NR-22150", "result": "< 0.5/< 0.5 μM"}, {"measurement": "MBC", "setting": "[1]; Bacillus cereus, B. cereus BAG1X2-1 NR-28578, read-out: MBC", "result": "< 0.5", "unit": "µM"}, {"measurement": "MIC", "setting": "[1]; Bacillus cereus, B. cereus BAG1X2-1 NR-28578, read-out: MIC", "result": "< 0.5", "unit": "µM"}, {"measurement": "MBC", "setting": "[1]; Bacillus cereus, NRS201, B. cereus NRS 201 NR-2488, read-out: MBC", "result": "< 0.5", "unit": "µM"}, {"measurement": "MIC", "setting": "[1]; Bacillus cereus, NRS201, B. cereus NRS 201 NR-2488, read-out: MIC", "result": "< 0.5", "unit": "µM"}, {"measurement": "MIC", "setting": "[2]", "result": 0.5, "unit": "µM"}, {"measurement": "MIC", "setting": "[3]", "result": "> 64", "unit": "µM"}, {"measurement": "MIC", "setting": "[3]; E. faecium E417 HM-965", "result": "> 64/— μM"}, {"measurement": "MIC", "setting": "[3]; E. faecium E1071 NR-28978", "result": "> 64/— μM"}, {"measurement": "MIC", "setting": "[3]; E. faecium HM 968 Strain ERV102", "result": "> 64/— μM"}, {"measurement": "MIC", "setting": "[3]; E. faecium NR31914 Strain E0120", "result": "> 64/— μM"}, {"measurement": "MIC50", "setting": "[4]", "result": "> 64", "unit": "µM"}, {"measurement": "MIC90", "setting": "[4]", "result": "> 64", "unit": "µM"}, {"measurement": "MBC", "setting": "[5]; NCIB9375", "result": 2, "unit": "µM"}, {"measurement": "MIC", "setting": "[5]; NCIB9375", "result": "< 0.5", "unit": "µM"}, {"measurement": "MBC", "setting": "[5]; NRS712", "result": "< 0.5", "unit": "µM"}, {"measurement": "MIC", "setting": "[5]; NRS712", "result": "< 0.5", "unit": "µM"}, {"measurement": "MBC", "setting": "[6]", "result": "> 64", "unit": "µM"}, {"measurement": "MIC50", "setting": "[6]", "result": "> 64", "unit": "µM"}, {"measurement": "MIC90", "setting": "[6]", "result": "> 64", "unit": "µM"}, {"measurement": "MIC", "setting": "[6]; VRSA 1", "result": "> 64", "unit": "µM"}, {"measurement": "MIC", "setting": "[6]; VRSA 2", "result": "> 16", "unit": "µM"}, {"measurement": "MIC", "setting": "[6]; VRSA 3a", "result": "> 16", "unit": "µM"}, {"measurement": "MIC", "setting": "[6]; VRSA 3b", "result": "> 16", "unit": "µM"}, {"measurement": "MIC", "setting": "[6]; VRSA 4", "result": "> 64", "unit": "µM"}, {"measurement": "MIC", "setting": "[6]; VRSA 5", "result": 64, "unit": "µM"}, {"measurement": "MIC", "setting": "[6]; VRSA 6", "result": "> 64", "unit": "µM"}, {"measurement": "MIC", "setting": "[6]; VRSA 7", "result": "> 64", "unit": "µM"}, {"measurement": "MIC", "setting": "[6]; VRSA 8", "result": "> 64", "unit": "µM"}, {"measurement": "MIC", "setting": "[6]; VRSA 9", "result": "> 64", "unit": "µM"}, {"measurement": "MIC", "setting": "[6]; VRSA 10", "result": "> 64", "unit": "µM"}, {"measurement": "MIC", "setting": "[6]; VRSA 11a", "result": "> 64", "unit": "µM"}, {"measurement": "MIC", "setting": "[6]; VRSA 11b", "result": "> 64", "unit": "µM"}, {"measurement": "MIC", "setting": "[6]; VRSA 12", "result": "> 64", "unit": "µM"}, {"measurement": "MIC", "setting": "[6]; VRSA 13", "result": "> 64", "unit": "µM"}, {"measurement": "MIC50", "setting": "[7]", "result": "< 0.5", "unit": "µM"}, {"measurement": "MIC90", "setting": "[7]", "result": "< 0.5", "unit": "µM"}, {"measurement": "MIC", "setting": "[8]; C. difficile HM-88", "result": 0.5, "unit": "µM"}, {"measurement": "MIC", "setting": "[8]; C. difficile HM-745", "result": 0.125, "unit": "µM"}, {"measurement": "MIC", "setting": "[8]; C. difficile HM-746", "result": 0.25, "unit": "µM"}, {"measurement": "MIC", "setting": "[8]; C. difficile Isolate-1 NR-13427", "result": 1, "unit": "µM"}, {"measurement": "MIC", "setting": "[8]; C. difficile Toxigenic Strain P8 NR-32888", "result": 0.5, "unit": "µM"}, {"measurement": "MBC", "setting": "[9]", "result": 16, "unit": "µM"}, {"measurement": "MIC", "setting": "[9]", "result": 2, "unit": "µM"}, {"measurement": "biofilm mass reduction", "setting": "[10]", "result": "not significantly decreased"}, {"measurement": "MIC", "setting": "[11]", "result": "> 64", "unit": "µM"}, {"measurement": "MIC", "setting": "[11]; E. faecalis ERV103 HM-934", "result": "> 64/— μM"}, {"measurement": "MIC", "setting": "[11]; E. faecalis NR31972 Strain SF 28073", "result": "> 64/— μM"}, {"measurement": "MIC", "setting": "[11]; E. faecalis S613 HM-334", "result": "> 64/— μM"}, {"measurement": "MIC", "setting": "[11]; E. faecalis TX0104 HM-201", "result": "> 64/— μM"}]}
